Assay results as given in EPA's ToxValDB 9.5 (doi:10.2903/j.efsa.2014.3540).

How the values were obtained:
[1] = system: Tagia sp.; settings: acute; duration: 14 days; mortality
[2] = system: Daphnia magna; settings: chronic/long-term; duration: 21 days; reproduction
[3] = system: Oryctolagus sp.; settings: developmental; development
[4] = system: Rattus norvegicus; settings: for NOAEL: chronic
[5] = system: Oncorhynchus mykiss; settings: chronic/long-term; duration: 96 days; mortality
[6] = system: Landoltia sp.; settings: acute; duration: 7 days; growth
[7] = system: Colinus virginianus; settings: for LD50: acute, oral, mortality
[8] = system: Apis mellifera; settings: acute, duration: 48 hours, mortality

Q: For Cc1c(C(=O)c2c[nH]n(C)c2=O)ccc(S(C)(=O)=O)c1C1=NOCC1 [Topramezone], which LC50 [1] is on record?
A: > 1000 mg/kg

Q: What about the NOEC [2] of the same compound?
A: 50 mg/L

Q: And the NOAEL [3]?
A: 0.5 mg/kg-day

Q: And the LD50 ([4]; acute, oral, mortality)?
A: > 2000 mg/kg-day

Q: What about the NOAEL ([4]; F) of the same compound?
A: 0.4 mg/kg-day

Q: What about the NOAEL ([4]; M) of the same compound?
A: 0.3 mg/kg-day

Q: And the NOAEL ([4]; duration: 2 years, F, histopathology: neoplastic)?
A: 0.4 mg/kg-day

Q: And the NOAEC [5]?
A: 3.2 mg/L

Q: What about the NOEC [6] of the same compound?
A: 0.001 mg/L

Q: What about the LD50 ([7]; diet) of the same compound?
A: > 1080 mg/kg-day

Q: And the LD50 [7]?
A: > 2000 mg/kg-day

Q: What about the NOEL ([7]; reproduction developmental, reproduction) of the same compound?
A: 19.4 mg/kg-day

Q: What about the LD50 ([8]; dermal) of the same compound?
A: > 100 µg/piece

Q: What about the LD50 ([8]; oral, unspecified) of the same compound?
A: > 72 µg/piece
